# Results as given in ChEMBL document CHEMBL4385663, “Discovery of novel PTHR1 antagonists: Design, synthesis, and structure activity relationships” (Bioorg Med Chem Lett, 2019).
# Tests used:
# [1] = molecular target: T1, Parathyroid hormone/parathyroid hormone-related peptide receptor (Homo sapiens, UniProt Q03431)
# T1 sequence (Q03431 whole entry): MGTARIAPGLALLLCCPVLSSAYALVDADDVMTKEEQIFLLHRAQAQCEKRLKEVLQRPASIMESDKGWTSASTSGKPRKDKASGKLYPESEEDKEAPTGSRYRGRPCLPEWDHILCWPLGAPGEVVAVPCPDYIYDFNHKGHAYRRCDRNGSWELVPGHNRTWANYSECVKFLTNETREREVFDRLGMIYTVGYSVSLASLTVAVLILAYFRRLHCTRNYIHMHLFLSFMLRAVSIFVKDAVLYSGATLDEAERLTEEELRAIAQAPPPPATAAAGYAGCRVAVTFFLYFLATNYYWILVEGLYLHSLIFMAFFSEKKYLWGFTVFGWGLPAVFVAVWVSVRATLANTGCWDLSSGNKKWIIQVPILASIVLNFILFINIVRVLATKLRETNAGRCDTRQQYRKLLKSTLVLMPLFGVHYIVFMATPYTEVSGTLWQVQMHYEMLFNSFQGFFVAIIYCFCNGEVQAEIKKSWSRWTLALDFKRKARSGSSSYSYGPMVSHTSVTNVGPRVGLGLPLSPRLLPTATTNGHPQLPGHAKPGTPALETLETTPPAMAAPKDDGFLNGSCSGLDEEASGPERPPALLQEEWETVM
# Description: Antagonist activity at human PTHR1 expressed in CHOK1 cells co-expressing Gs/Gq assessed as reduction in human PTH (1 to 34 residues)-induced cAMP accumulation incubated for 30 mins by HTRF assay
# physchem = settings: 1-octanol/phosphate buffered saline, pH 7.4
# Description: Distribution coefficient, log D of the compound in 1-octanol and phosphate buffered saline at pH 7.4
# [2] = Oral bioavailability in Sprague-Dawley rat at 10 mg/kg; type: ADME, organism-based; settings: in vivo
# [3] = Solubility of the compound in JP1 buffer at pH 1.2; type: physicochemical
# [4] = Volume of distribution in Sprague-Dawley rat at 1 mg/kg, iv; type: ADME, organism-based; settings: in vivo
# [5] = Solubility of the compound in JP2 buffer at pH 6.8; type: physicochemical
# [6] = Protein binding in rat plasma assessed as unbound fraction; type: ADME, cell-free
# [7] = Half life in Sprague-Dawley rat at 10 mg/kg, po; type: ADME, organism-based; settings: in vivo
# [8] = Clearance in Sprague-Dawley rat at 1 mg/kg, iv; type: ADME, organism-based; settings: in vivo
# [9] = AUClast in Sprague-Dawley rat at 10 mg/kg, po; type: ADME, organism-based; parameters: dose 10 mg/kg, time 0 - last, route oral; settings: in vivo
# in vitro = settings: rat, liver microsomes
# Description: Metabolic stability in rat liver microsomes assessed as parent compound remaining after 0.5 hrs
SMILES,IC50 [1] [µM],further results
CC(C)C1(C)N=C(C2CCCCC2)c2ccc(Cl)cc2N(c2ccc(NCCN)cc2)C1=O (stereo not drawn),6.8,–
NCCNc1ccc(N2C(=O)CN(C3CCCCC3)C(=O)c3ccc(Cl)cc32)cc1,> 100,–
CC1(C)N=C(C2CCCCC2)c2ccc(C#N)cc2N(c2ccc(CCCN)cc2)C1=O,7.6,–
Cc1ccc2c(c1)N(c1ccc(NCCN)cc1)C(=O)C(C)(C)N=C2C1CCCCC1,6.1,–
NCCNc1ccc(N2C(=O)CN(C3CCCCC3)Cc3ccc(Cl)cc32)cc1,> 100,logD (physchem): 1.4
CC1(C)N=C(C2CCCCC2)c2ccc(C#N)cc2N(c2ccc(NCCNC3CCOCC3)cc2)C1=O,0.09,bioavailability [2]: 27%; solubility [3]: 760 µg/mL; Vd [4]: 4.7 L/kg; solubility [5]: 500 µg/mL; fraction unbound [6]: 0.029; half-life [7]: 4.23 h; clearance [8]: 46.8 mL/min/kg; AUC(0-t) [9]: 1940 ng·h/mL; remaining at 0.5 h (in vitro): 28%; logD (physchem): 2.9
CC(C)N1N=C(C2CCCCC2)c2ccc(Cl)cc2N(c2ccc(CC3=NCCN3)cc2)C1=O,9.4,logD (physchem): 4.2
COc1ccc2c(c1)N(c1ccc(NCCN)cc1)C(=O)C(C)(C)N=C2C1CCCCC1,14,–
CC(C)C1N=C(C2CCCCC2)c2ccc(Cl)cc2N(c2ccc(NCCN)cc2)C1=O (stereo not drawn),14,–
CC1(C)N=C(C2CCCCC2)c2ccc(C#N)cc2N(c2ccc(NCCN)cc2)C1=O,0.73,logD (physchem): 2.1
CC1(C)N=C(C2CCCCC2)c2ccc(C#N)cc2N(c2ccc(NCCNC3CCCCC3)cc2)C1=O,2.3,–
CN(C)C1N=C(C2CCCCC2)c2ccc(Cl)cc2N(c2ccc(NCCN)cc2)C1=O (stereo not drawn),44,–
NCCNc1ccc(N2C(=O)CN=C(C3CCCCC3)c3ccc(Cl)cc32)cc1,38,logD (physchem): 1.7
CC1(C)N=C(C2CCCCC2)c2ccc(C#N)cc2N(c2ccc(OCCN)cc2)C1=O,4,–
CC1(C)N=C(c2ccccc2)c2ccc(Cl)cc2N(c2ccc(NCCN)cc2)C1=O,45,–
CC(C)CC1=NC(C)(C)C(=O)N(c2ccc(NCCN)cc2)c2cc(Cl)ccc21,23,–
CC1(C)N=C(C2CCCCC2)c2ccc(C#N)cc2N(c2ccc(NCCNC3CCN(S(C)(=O)=O)CC3)cc2)C1=O,0.18,–
CC1(C)N=C(C2CCCCC2)c2ccc(C#N)cc2N(c2ccc(NCCCN)cc2)C1=O,4.1,–
CC1(C2=NC(C)(C)C(=O)N(c3ccc(NCCN)cc3)c3cc(Cl)ccc32)CCCCC1,16,–
